One compound from patent US11576987B2, “Compositions and methods of treating melanoma” (UNIVERSITY OF IOWA RESEARCH FOUNDATION, priority 2016, dated 2023) can be followed below.

Molecules are shown by their SMILES. Where a name gives a salt, the structure may show the parent alone.

This experiment has as its system MCR1 expression. Briefly: Pharmacological enhancement of MCR1 expression in human melanoma cells by drug incubation. Format: cell-based. Conditions: human melanoma cells, incubation with drug. An excerpt: Melanoma if detected early can be cured by surgery, but metastatic melanoma is lethal. New therapies (e.g., immunotherapy; BRAF inhibition, BRAFi) and combinations extend life, but low response rates, acquired drug resistance, and serious side effects are major challenges to improving outcomes for disseminated disease (5 y survival 17%). Peptide-based radionuclide therapy targeted to the melanocortin-receptor type 1 (MCR1-RT) has long been considered a promising alternative; and MCR1-RT has achieved complete responses in mouse models (B16). However, MCR1 expression is heterogeneous/low in human melanoma, and as a result, no previous MCR1-RT study has employed successfully human melanoma cell xenografts. […] This introduces innovative Pb-specific chelator combined with a “click-cyclized” peptide (PSC-C-MCR1) to improve tumor:kidney ratio of radionuclide uptake 7-fold. An effective therapy for metastatic melanoma is developed that combines MCR1-RT with pharmacological agents (PBA; BRAFi/MEKi; HDACi) that enhance MCR1 expression.
Melanoma is the fastest growing cancer incidence in the United States. Surgery combined with radiation can be curative at early stages. However, metastatic melanoma is almost uniformly fatal (5-yr survival 17%). Recent breakthrough targeted MAPKi therapies (e.g., BRAFi) and immunotherapies (e.g., PD-1 inhibitors) have improved outcomes, but low response rates, acquired drug resistance, and adverse side effects limit quality of life for metastatic melanoma patients. For example, approval of immune-checkpoint inhibitor ipilimumab was based on an improvement in overall survival of only 3.7 months (overall response <15%). Combination immunotherapies have improved response (up to 61%), but grade 3/4 adverse events (up to 55%) often lead to therapy discontinuation (up to 36%). For targeted therapies, BRAF inhibitor vemurafenib was approved based on overall survival at 6 months of 84% vs 64% in the control arm (dacarbazine). Combining BRAFi with MEK inhibitors (MEKi) has led to modest improvements, yet recurrence is virtually inevitable. The mechanisms of acquired drug resistance are complex, and include altered/alternative oncogenic pathways; tumor heterogeneity; and enhanced DNA repair. Melanocortin-receptor type 1 targeted radionuclide therapy (MCR1-RT) has long been considered a promising alternative treatment for melanoma; and MCR1-targeted α-particle therapy (^212Pb) has achieved complete responses in mice bearing mouse (B16) tumors that highly express MCR1. However, these studies have been confined primarily to mouse melanoma (B16) cells because MCR1 expression is heterogeneous/low in human melanoma.
Combination therapies for metastatic melanoma are emerging as common practice (e.g., BRAFi plus MEK; and combination immunotherapies), but melanoma almost invariably develops resistance. MCR1-RT has long been considered a promising alternative, but previous therapy studies have been limited to the use of B16 mouse melanoma cells that highly express the MCR1 protein, because native MCR1 expression in human melanoma is heterogeneous/low.

Consider `O=C(O)CCCc1ccccc1` [PBA, 4-phenylbutyric acid, sodium salt], for which the “enhancement of MCR1 expression” value was “up to 8 fold”.
